Measured values from PMC8593678, “Berberine Improves Irinotecan-Induced Intestinal Mucositis Without Impairing the Anti-colorectal Cancer Efficacy of Irinotecan by Inhibiting Bacterial β-glucuronidase” (Frontiers in Pharmacology, 2021).

Molecular target: T1, β-glucuronidase (GUS) (Escherichia coli, UniProt P05804)
T1 construct: gene uidA
Experiment: fluorescent 4-MUG hydrolysis assay with purchased E. coli GUS; Lineweaver-Burk plots
Assay type: biochemical

T1 sequence (P05804 whole entry): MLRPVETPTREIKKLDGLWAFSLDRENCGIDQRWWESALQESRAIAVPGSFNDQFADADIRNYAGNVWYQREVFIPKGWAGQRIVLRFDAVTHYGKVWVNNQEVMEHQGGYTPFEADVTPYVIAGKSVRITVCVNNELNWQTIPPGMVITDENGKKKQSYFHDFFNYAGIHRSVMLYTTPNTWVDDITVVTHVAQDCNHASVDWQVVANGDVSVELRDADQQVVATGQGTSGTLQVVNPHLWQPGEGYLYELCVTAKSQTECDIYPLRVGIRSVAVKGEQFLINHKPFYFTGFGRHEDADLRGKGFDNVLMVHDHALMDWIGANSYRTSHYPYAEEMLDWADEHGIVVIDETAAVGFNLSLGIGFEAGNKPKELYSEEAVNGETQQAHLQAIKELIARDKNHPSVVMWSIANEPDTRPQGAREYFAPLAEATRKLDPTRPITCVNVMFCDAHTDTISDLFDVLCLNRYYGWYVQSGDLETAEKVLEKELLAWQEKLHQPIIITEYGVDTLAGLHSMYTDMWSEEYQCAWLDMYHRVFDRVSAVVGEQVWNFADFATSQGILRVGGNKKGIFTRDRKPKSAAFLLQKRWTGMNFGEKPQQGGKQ

Structure (SMILES): COc1ccc2cc3[n+](cc2c1OC)CCc1cc2c(cc1-3)OCO2 [Berberine, 9,10-dimethoxy-5,6-dihydro-(1,3)dioxolo (4,5-g)isoquinolino (3,2-a)isoquinolin-7-ium]
- IC50: 54 ± 5.1 µM
